Measurements published in ChEMBL document CHEMBL1201862, “PubChem BioAssay data set” (2004).
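Dose response: 5 concentrations. Exposure: 48 h. Format: 96-well plates. Endpoint: linear interpolation; highest concentration if not reached. At the GI50, growth is halved.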 Calls of active or inactive are those of the source. Cut-off read from the data, not from the text of the source: active = GI50 up to about 1.1 µM and inactive = higher.

How the values were obtained:
Assay in all cases: growth of human tumour cells (NCI), 48 h
[1] = test system: OVCAR-4
[2] = test system: HOP-92
[3] = test system: IGROV-1
[4] = test system: OVCAR-5
[5] = test system: TK-10
[6] = test system: SK-MEL-2
[7] = test system: HCT-116
[8] = test system: HT-29
[9] = test system: LOX IMVI
[10] = test system: MCF7
[11] = test system: SNB-19
[12] = test system: HOP-62
[13] = test system: U-251
[14] = test system: NCI/ADR-RES
[15] = test system: HCT-15
[16] = test system: KM12
[17] = test system: ACHN
[18] = test system: SF-539
[19] = test system: EKVX
[20] = test system: OVCAR-3

Row | Compound | GI50 [1] | GI50 [2] | GI50 [3] | GI50 [4] | GI50 [5] | GI50 [6] | GI50 [7] | GI50 [8] | GI50 [9] | GI50 [10] | GI50 [11] | GI50 [12] | GI50 [13] | GI50 [14] | GI50 [15] [µM] | GI50 [16] | GI50 [17] | GI50 [18] | GI50 [19] | GI50 [20]
1 | COc1ccc(Cc2cc(OC)c(OC)c(OC)c2)cc1O | 42.5 µM (inactive) | 0.119 µM (active) | 3.78 µM (inactive) | 68.1 µM (inactive) | > 90.4 µM (inactive) | 0.0702 µM (active) | 0.064 µM (active) | 14.3 µM (inactive) | 0.0547 µM (active) | 0.0244 µM (active) | 0.0352 µM (active) | 0.109 µM (active) | 0.0982 µM (active) | < 0.01 µM (active) | 0.019 | 0.0193 µM (active) | 0.167 µM (active) | 0.0334 µM (active) | 24.7 µM (inactive) | 0.0365 µM (active)
2 | O=C(O)c1ccccc1NCn1c(=S)sc2ccccc21 | 56 µM (inactive) | > 100 µM (inactive) | 57.4 µM (inactive) | > 100 µM (inactive) | 94.6 µM (inactive) | > 100 µM (inactive) | 40.7 µM (inactive) | 59.8 µM (inactive) | 20 µM (inactive) | 22.4 µM (inactive) | 76.7 µM (inactive) | 45.1 µM (inactive) | 47.3 µM (inactive) | > 100 µM (inactive) | 66.5 | 63 µM (inactive) | 35.6 µM (inactive) | 18.3 µM (inactive) | > 100 µM (inactive) | 30.6 µM (inactive)
3 | Cc1nc(N)nc2ccccc12 | > 100 µM (inactive) | > 100 µM (inactive) | > 100 µM (inactive) | > 100 µM (inactive) | > 100 µM (inactive) | > 100 µM (inactive) | > 100 µM (inactive) | > 100 µM (inactive) | > 100 µM (inactive) | > 100 µM (inactive) | > 100 µM (inactive) | > 100 µM (inactive) | > 100 µM (inactive) | > 100 µM (inactive) | > 100 | > 100 µM (inactive) | > 100 µM (inactive) | > 100 µM (inactive) | 44.8 µM (inactive) | > 100 µM (inactive)
4 | O=C1NC2(CN3CCC2CC3)C(=O)N1CN(Cc1ccccc1)c1ccccc1 (stereo not drawn) | > 100 µM (inactive) | > 100 µM (inactive) | > 100 µM (inactive) | > 100 µM (inactive) | > 100 µM (inactive) | > 100 µM (inactive) | > 100 µM (inactive) | 56.6 µM (inactive) | 35.2 µM (inactive) | 47.9 µM (inactive) | > 100 µM (inactive) | > 100 µM (inactive) | > 100 µM (inactive) | > 100 µM (inactive) | 41.2 | > 100 µM (inactive) | 72.8 µM (inactive) | 93.8 µM (inactive) | > 100 µM (inactive) | > 100 µM (inactive)
5 | COc1cc(/C=C2\C(=O)N(c3ccc(Cl)cc3)C(c3ccccc3)S2(=O)=O)cc(OC)c1OC (stereo not drawn) | 8.89 µM (inactive) | 51.9 µM (inactive) |  | 9.04 µM (inactive) | > 63 µM (inactive) | 9.77 µM (inactive) | 3.37 µM (inactive) | 42.5 µM (inactive) | 4.55 µM (inactive) | 4.61 µM (inactive) | 20 µM (inactive) | > 34.5 µM (inactive) | 29.1 µM (inactive) | 12.4 µM (inactive) | 1.03 | 3.72 µM (inactive) |  | 57 µM (inactive) | 26.8 µM (inactive) | 25.4 µM (inactive)
6 | CCOC(=O)c1oc2cc3c(c4c2c1-c1ccccc1N4C)C=CC(C)(C)O3 | 6.58 µM (inactive) | 3.72 µM (inactive) | 15.8 µM (inactive) | 29.9 µM (inactive) | 7.1 µM (inactive) | 26.6 µM (inactive) | 14.2 µM (inactive) | 9.51 µM (inactive) | 16.4 µM (inactive) | 2.37 µM (inactive) | 14.7 µM (inactive) | 6.84 µM (inactive) | 7.5 µM (inactive) | 6.3 µM (inactive) | 50.4 | 16.3 µM (inactive) | 8.89 µM (inactive) | 6.4 µM (inactive) | 15.3 µM (inactive) | 9.59 µM (inactive)
7 | [N-]=[N+]=NC1C(O)C(CO)OC1n1ccc(=O)[nH]c1=O (stereo not drawn) | > 875 µM (inactive) | > 875 µM (inactive) | > 875 µM (inactive) | > 875 µM (inactive) | > 875 µM (inactive) | > 875 µM (inactive) | > 875 µM (inactive) | > 875 µM (inactive) | > 875 µM (inactive) | > 875 µM (inactive) | > 875 µM (inactive) | > 875 µM (inactive) | > 875 µM (inactive) | > 875 µM (inactive) | > 875 | > 875 µM (inactive) | > 875 µM (inactive) | > 875 µM (inactive) | 344 µM (inactive) | > 875 µM (inactive)
